# In patent US11440915B2, “Triazolo-azepine derivatives” (Hoffmann-La Roche Inc., priority 2017, dated 2022):
# Target: γ-secretase (Homo sapiens (Human), UniProt P49768)
# Test: Cellular γ-secretase assay (inhibition of Aβ42 secretion, AlphaLisa)
# Assay type: cell-based
# Details: human neuroglioma H4 cells overexpressing human APP695 Swedish double mutation, 24 hr compound incubation
# Procedure: Human neuroglioma H4 cells overexpressing human APP695 with the Swedish double mutation (K595N/M596L) were plated at 30,000 cells/well/100 μl in 96-well plates in IMDM media containing 10% FCS, 0.2 mg/l Hygromycin B and incubated at 37° C., 5% CO2.
# 3-4 hr post plating, compounds are a diluted in media and 50 μl is added as 1.5-fold concentrate to achieve the final concentration. Compound incubation is performed for 24 hr. Final doses typically range from 4 μM down to 0.001 μM in half-log steps resulting in a eight point dose response curve.
# Appropriate controls using vehicle only and reference compound were applied to this assay. The final concentration of Me2SO was 0.4%.
# After incubation at 37° C., 5% CO2, the supernatant was subjected to quantification of secreted Aβ42 by the means of an AlphaLisa assay kit (Human Amyloid beta 1-42 Kit: Cat #AL203C, Perkin Elmer). 20 μl of the cell culture supernatant was transferred to an assay plate. Then 10 μl of a mixture of the AlphaLisa coupled capture antibody and the biotinylated detection antibody was added and incubated for 3 hours at room temperature while softly shaking the assay plate. After a further addition of 20 μl of the Donor beads the assay plate was incubated for 30 min at room temperature and constant shaking without exposure to direct light. The assay plate was then read on a Paradigm AlphaLisa Reader using the build-in program with excitation at 680 nm and emission at 570 nm.
# The measured signals were then used to calculate IC50 values for inhibition of Aβ42 secretion by nonlinear regression fit analysis using XLfit 5.3 software (IDBS).
row,EC50 [nM],Structure (SMILES)
1,15,"Cc1cn(C23CC(Nc4nc5n(n4)CCCC[C@@H]5c4cccc(Cl)c4)(C2)C3)cn1 [Example 1, (9R)-9-(3-chlorophenyl)-N-[3-(4-methylimidazol-1-yl)-1-bicyclo[1.1.1]pentanyl]-6,7,8,9-tetrahydro-5H-[1,2,4]triazolo[1,5-a]azepin-2-amine]"
2,16,"Cc1cn(C23CC(Nc4nc5n(n4)CCCC[C@H]5c4cccc(Cl)c4)(C2)C3)cn1 [Example 2, (9S)-9-(3-chlorophenyl)-N-[3-(4-methylimidazol-1-yl)-1-bicyclo[1.1.1]pentanyl]-6,7,8,9-tetrahydro-5H-[1,2,4]triazolo[1,5-a]azepin-2-amine]"
3,25,"Cc1cn(C23CC(Nc4nc5n(n4)CCCC[C@@H]5c4ccc(F)cc4)(C2)C3)cn1 [Example 3, (9R)-9-(4-fluorophenyl)-N-[3-(4-methylimidazol-1-yl)-1-bicyclo[1.1.1]pentanyl]-6,7,8,9-tetrahydro-5H-[1,2,4]triazolo[1,5-a]azepin-2-amine]"
4,31,"Cc1cn(C23CC(Nc4nc5n(n4)CCCC[C@H]5c4ccc(F)cc4)(C2)C3)cn1 [Example 4, (9S)-9-(4-fluorophenyl)-N-[3-(4-methylimidazol-1-yl)-1-bicyclo[1.1.1]pentanyl]-6,7,8,9-tetrahydro-5H-[1,2,4]triazolo[1,5-a]azepin-2-amine]"
5,26,"Cc1cn(C23CC(Nc4nc5n(n4)CCCC[C@@H]5c4ccc(Cl)cc4)(C2)C3)cn1 [Example 5, (9R)-9-(4-chlorophenyl)-N-[3-(4-methylimidazol-1-yl)-1-bicyclo[1.1.1]pentanyl]-6,7,8,9-tetrahydro-5H-[1,2,4]triazolo[1,5-a]azepin-2-amine]"
6,23,"Cc1cn(C23CC(Nc4nc5n(n4)CCCC[C@H]5c4ccc(Cl)cc4)(C2)C3)cn1 [Example 6, (9S)-9-(4-chlorophenyl)-N-[3-(4-methylimidazol-1-yl)-1-bicyclo[1.1.1]pentanyl]-6,7,8,9-tetrahydro-5H-[1,2,4]triazolo[1,5-a]azepin-2-amine]"
7,15,"Cc1cn(C23CCC(Nc4nc5n(n4)CCCC[C@@H]5c4cc(F)cc(Cl)c4)(CC2)CC3)cn1 [Example 7, (9R)-9-(3-chloro-5-fluoro-phenyl)-N-[4-(4-methylimidazol-1-yl)-1-bicyclo[2.2.2]octanyl]-6,7,8,9-tetrahydro-5H-[1,2,4]triazolo[1,5-a]azepin-2-amine]"
8,14,"Cc1cn(C23CCC(Nc4nc5n(n4)CCCC[C@H]5c4cc(F)cc(Cl)c4)(CC2)CC3)cn1 [Example 8, (9S)-9-(3-chloro-5-fluoro-phenyl)-N-[4-(4-methylimidazol-1-yl)-1-bicyclo[2.2.2]octanyl]-6,7,8,9-tetrahydro-5H-[1,2,4]triazolo[1,5-a]azepin-2-amine]"
9,8,"Cc1cn(C23CC(Nc4nc5n(n4)CCCC[C@@H]5c4cc(F)cc(Cl)c4)(C2)C3)cn1 [Example 9, (9R)-9-(3-chloro-5-fluoro-phenyl)-N-[3-(4-methylimidazol-1-yl)-1-bicyclo[1.1.1]pentanyl]-6,7,8,9-tetrahydro-5H-[1,2,4]triazolo[1,5-a]azepin-2-amine]"
10,14,"Cc1cn(C23CC(Nc4nc5n(n4)CCCC[C@H]5c4cc(F)cc(Cl)c4)(C2)C3)cn1 [Example 10, (9S)-9-(3-chloro-5-fluoro-phenyl)-N-[3-(4-methylimidazol-1-yl)-1-bicyclo[1.1.1]pentanyl]-6,7,8,9-tetrahydro-5H-[1,2,4]triazolo[1,5-a]azepin-2-amine]"
11,39,"Cc1cn(C23CCC(Nc4nc5n(n4)CCCC[C@@H]5c4ccc(F)c(F)c4)(CC2)CC3)cn1 [Example 11, (9R)-9-(3,4-difluorophenyl)-N-[4-(4-methylimidazol-1-yl)-1-bicyclo[2.2.2]octanyl]-6,7,8,9-tetrahydro-5H-[1,2,4]triazolo[1,5-a]azepin-2-amine]"
12,49,"Cc1cn(C23CCC(Nc4nc5n(n4)CCCC[C@H]5c4ccc(F)c(F)c4)(CC2)CC3)cn1 [Example 12, (9S)-9-(3,4-difluorophenyl)-N-[4-(4-methylimidazol-1-yl)-1-bicyclo[2.2.2]octanyl]-6,7,8,9-tetrahydro-5H-[1,2,4]triazolo[1,5-a]azepin-2-amine]"
13,44,"Cc1cn(C23CC(Nc4nc5n(n4)CCCC[C@@H]5c4ccc(F)c(F)c4)(C2)C3)cn1 [Example 13, (9R)-9-(3,4-difluorophenyl)-N-[3-(4-methylimidazol-1-yl)-1-bicyclo[1.1.1]pentanyl]-6,7,8,9-tetrahydro-5H-[1,2,4]triazolo[1,5-a]azepin-2-amine]"
14,27,"Cc1cn(C23CC(Nc4nc5n(n4)CCCC[C@H]5c4ccc(F)c(F)c4)(C2)C3)cn1 [Example 14, (9S)-9-(3,4-difluorophenyl)-N-[3-(4-methylimidazol-1-yl)-1-bicyclo[1.1.1]pentanyl]-6,7,8,9-tetrahydro-5H-[1,2,4]triazolo[1,5-a]azepin-2-amine]"
15,38,"Cc1cn(C23CC(Nc4nc5n(n4)CCCC[C@@H]5c4ccccc4F)(C2)C3)cn1 [Example 15, (9R)-9-(2-fluorophenyl)-N-[3-(4-methylimidazol-1-yl)-1-bicyclo[1.1.1]pentanyl]-6,7,8,9-tetrahydro-5H-[1,2,4]triazolo[1,5-a]azepin-2-amine]"
16,19,"Cc1cn(C23CC(Nc4nc5n(n4)CCCC[C@H]5c4ccccc4F)(C2)C3)cn1 [Example 16, (9S)-9-(2-fluorophenyl)-N-[3-(4-methylimidazol-1-yl)-1-bicyclo[1.1.1]pentanyl]-6,7,8,9-tetrahydro-5H-[1,2,4]triazolo[1,5-a]azepin-2-amine]"
17,56,"Cc1cn(C23CCC(Nc4nc5n(n4)CCCC[C@@H]5c4ccccc4F)(CC2)CC3)cn1 [Example 17, (9R)-9-(2-fluorophenyl)-N-[4-(4-methylimidazol-1-yl)-1-bicyclo[2.2.2]octanyl]-6,7,8,9-tetrahydro-5H-[1,2,4]triazolo[1,5-a]azepin-2-amine]"
18,62,"Cc1cn(C23CCC(Nc4nc5n(n4)CCCC[C@H]5c4ccccc4F)(CC2)CC3)cn1 [Example 18, (9S)-9-(2-fluorophenyl)-N-[4-(4-methylimidazol-1-yl)-1-bicyclo[2.2.2]octanyl]-6,7,8,9-tetrahydro-5H-[1,2,4]triazolo[1,5-a]azepin-2-amine]"
19,14,"Cc1cn(C23CC(Nc4nc5n(n4)CCCC[C@@H]5c4ccc(F)c(F)c4F)(C2)C3)cn1 [Example 19, (9R)-N-[3-(4-methylimidazol-1-yl)-1-bicyclo[1.1.1]pentanyl]-9-(2,3,4-trifluorophenyl)-6,7,8,9-tetrahydro-5H-[1,2,4]triazolo[1,5-a]azepin-2-amine]"
20,10,"Cc1cn(C23CC(Nc4nc5n(n4)CCCC[C@H]5c4ccc(F)c(F)c4F)(C2)C3)cn1 [Example 20, (9S)-N-[3-(4-methylimidazol-1-yl)-1-bicyclo[1.1.1]pentanyl]-9-(2,3,4-trifluorophenyl)-6,7,8,9-tetrahydro-5H-[1,2,4]triazolo[1,5-a]azepin-2-amine]"
21,43,"Cc1cn(C23CCC(Nc4nc5n(n4)CCCC[C@@H]5c4ccc(F)c(F)c4F)(CC2)CC3)cn1 [Example 21, (9R)-N-[4-(4-methylimidazol-1-yl)-1-bicyclo[2.2.2]octanyl]-9-(2,3,4-trifluorophenyl)-6,7,8,9-tetrahydro-5H-[1,2,4]triazolo[1,5-a]azepin-2-amine]"
22,27,"Cc1cn(C23CCC(Nc4nc5n(n4)CCCC[C@H]5c4ccc(F)c(F)c4F)(CC2)CC3)cn1 [Example 22, (9S)-N-[4-(4-methylimidazol-1-yl)-1-bicyclo[2.2.2]octanyl]-9-(2,3,4-trifluorophenyl)-6,7,8,9-tetrahydro-5H-[1,2,4]triazolo[1,5-a]azepin-2-amine]"
